Assay results: patent US20060030615A1, “Progesterone receptor modulators comprising pyrrole-oxindole derivatives and uses thereof” (Wyeth, priority 2004, published 2006)

Columns and labels:
progesterone receptor = molecular target: T1, progesterone receptor (Homo sapiens, UniProt P06401); experiment: T47D Cell Alkaline Phosphatase Assay; format: cell-based; settings: antagonist mode, T47D cells, in the presence of 1 nM progesterone, 24 hours
T1 construct: Effects of Progestins and Antiprogestins on Alkaline Phosphatase Activity in T47D cells; endogenous in cells; host or cells: T47D cells
T1 sequence (P06401 1-933): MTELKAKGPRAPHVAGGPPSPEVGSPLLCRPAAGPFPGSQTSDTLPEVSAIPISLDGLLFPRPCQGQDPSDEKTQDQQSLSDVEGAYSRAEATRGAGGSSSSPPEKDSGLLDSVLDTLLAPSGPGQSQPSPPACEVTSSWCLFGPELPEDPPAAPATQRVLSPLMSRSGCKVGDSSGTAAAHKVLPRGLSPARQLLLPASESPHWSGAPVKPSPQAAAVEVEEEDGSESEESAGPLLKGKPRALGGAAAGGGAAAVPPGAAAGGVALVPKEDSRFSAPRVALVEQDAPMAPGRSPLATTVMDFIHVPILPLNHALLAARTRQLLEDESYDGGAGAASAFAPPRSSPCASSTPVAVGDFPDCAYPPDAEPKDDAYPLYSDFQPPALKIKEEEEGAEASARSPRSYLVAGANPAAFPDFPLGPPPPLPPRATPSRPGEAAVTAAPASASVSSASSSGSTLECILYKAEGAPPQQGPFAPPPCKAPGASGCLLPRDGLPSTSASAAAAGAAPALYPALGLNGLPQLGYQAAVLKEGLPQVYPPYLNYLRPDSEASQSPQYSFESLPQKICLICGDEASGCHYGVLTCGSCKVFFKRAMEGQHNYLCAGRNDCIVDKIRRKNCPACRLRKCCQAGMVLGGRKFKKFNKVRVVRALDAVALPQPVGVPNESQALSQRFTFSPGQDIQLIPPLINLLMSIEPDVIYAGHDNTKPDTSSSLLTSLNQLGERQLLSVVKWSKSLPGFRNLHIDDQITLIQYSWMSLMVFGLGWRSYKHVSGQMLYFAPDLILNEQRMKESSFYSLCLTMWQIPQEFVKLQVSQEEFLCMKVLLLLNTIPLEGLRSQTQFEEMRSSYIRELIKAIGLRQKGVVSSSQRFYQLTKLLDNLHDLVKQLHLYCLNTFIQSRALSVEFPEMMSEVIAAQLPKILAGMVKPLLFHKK
Procedure: A. Effects of Progestins and Antiprogestins on Alkaline Phosphatase Activity in T47D cells (T47D Alkaline Phosphatase Assay)
The molecules of the present invention are anticipated to be active in the antagonist mode in the T47D alkaline phosphatase assay at concentrations of 3 μM or lower.
Culture medium: DMEM:F12 (1:1) (GIBCO, BRL) supplemented with 5% (v/v) charcoal stripped fetal bovine serum (not heat-inactivated), 100 U/ml penicillin, 100 μg/ml streptomycin, and 2 mM GlutaMax (GIBCO, BRL).
Alkaline phosphatase assay buffer: I. 0.1M Tris-HCI, pH 9.8, containing 0.2% Triton X-100, 0.1M Tris-HCI, pH 9.8, containing 4 mM p-nitrophenyl phosphate (Sigma).
2. Cell Culture And Treatment:
Frozen T47D cells are thawed in a 37° C. water bath and diluted to 280,000 cells/ml in culture medium. To each well in a 96-well plate (Falcon, Becton Dickinson Labware), 180 μl of diluted cell suspension is added. Twenty μl of reference or test compounds diluted in the culture medium is then added to each well. When testing for progestin antagonist activity, reference antiprogestins or test compounds are added in the presence of 1 nM progesterone. The cells are incubated at 37° C. in a 5% CO2 humidified atmosphere for 24 hours. For high throughput screening, one concentration of each compound will be tested at 0.3 μg/ml. Based on an average molecular weight of 300 g/mol for the compounds in the library, the concentration is approximately 1 μM. Subsequently, active compounds will be tested in dose response assays to determine EC50 and IC50.
3. Alkaline Phosphatase Enzyme Assay:
At the end of treatment, the medium is removed from the plate. Fifty μl of assay buffer I is added to each well. The plates are shaken in a titer plate shaker for 15 min. Then 150 μl of assay buffer II is added to each well. Optical density measurements are taken at 5 min intervals for 30 min. at a test wavelength of 405 nm.
4. Analysis of Dose-Response Data.
For reference and test compounds, a dose response curve is generated for dose vs. the rate of enzyme reaction (slope). Square root-transformed data are used for analysis of variance and nonlinear dose response curve fitting for both agonist and antagonist modes. Huber weighting is used to down-weight the effects of outliers. EC50 or IC50 values are calculated from the retransformed values. JMP software (SAS Institute, Inc.) is used for both one-way analysis of variance and non-4 linear dose response analysis in both single dose and dose response studies.
Progesterone and trimegestone are reference progestins and RU486 is the reference antiprogestin. All reference compounds are run in full dose response curves and the EC50 and IC50 values are calculated.

[1] = test system: rat uterine decidualization; experiment: Rat Decidualization Assay (mature ovariectomized rats); format: in vivo; settings: rat decidual assay, po
Procedure: B. Progestational and Antiprogestational Activity in Mature Ovariectomized Rats (Rat Decidualization Assay)
This assay is used to evaluate the effect of progestins and antiprogestins on rat uterine decidualization and compare the relative potencies of various test compounds.
Test compounds are dissolved in 100% ethanol and mixed with corn oil (vehicle). Stock solutions of the test compounds in oil (Mazola™) are then prepared by heating (˜80° C.) the mixture to evaporate ethanol. Test compounds are subsequently diluted with 100% corn oil or 10% ethanol in corn oil prior to the treatment of animals. No difference in decidual response was found when these two vehicles were compared. […]
Approximately 24 hr after the third injection, decidualization is induced in one of the uterine horns of anesthetized rats by scratching the antimesometrial luminal epithelium with a blunt 21 G needle. […] Approximately 24 hr following the final treatment, rats are sacrificed by CO asphyxiation and body weight measured. […]
In agonist mode, the increase in weight of the decidualized uterine horn is calculated by D-horn/C-horn and logarithmic transformation is used to maximize normality and homogeneity of variance. […] EC50 is calculated from the transformed value. […] IC50 is calculated from the retransformed value. […]

Compound	IC50 (progesterone receptor) [nM]	ED50 [1] [mg/k]	melting point [°C]
N#Cc1ccc(-c2ccc3c(c2)C2(CCCC2)C(=O)N3)[nH]1 [5-(1,2-Dihydro-2-oxospiro[cyclopentane-1,3-[3H]indol]-5-yl)-1H-pyrrole-2-carbonitrile]	60		
Cn1c(C#N)ccc1-c1ccc2c(c1)C1(CCC1)C(=O)N2 [1-methyl-5-(2′-oxo-1′,2′-dihydrospiro[cyclobutane-1,3′-indol]-5′-yl)-1H-pyrrole-2-carbonitrile]	1		
CC[C@@H]1C(=O)Nc2ccc(-c3ccc(C#N)n3C)cc21 (single isomer, unassigned)	13.1		
CN1C(=O)C(C)(C)c2cc(-c3ccc(C#N)n3C)ccc21 [1-methyl-5-(1,3,3-trimethyl-2-oxo-2,3-dihydro-1H-indol-5-yl)-1H-pyrrole-2-carbonitrile]	13.3		
CC(C)(C)OC(=O)n1c(C#N)ccc1-c1ccc2c(c1)C1(CCCC1)C(=O)N2 [2-Cyano-5-(1,2-dihydro-2-oxospiro[cyclopentane-1,3-[3H]indol]-5-yl)-1H-pyrrole-1-carboxylic acid, tert-butyl ester]	300		
Cn1c(C#N)ccc1-c1ccc2c(c1)C(C)(C)C(=O)N2 [5-(3,3-dimethyl-2-oxo-2,3-dihydro-1H-indol-5-yl)-1-methyl-1H-pyrrole-2-carbonitrile]	10	0.2	
CC[C@H]1C(=O)Nc2ccc(-c3ccc(C#N)n3C)cc21 (single isomer, unassigned)	6.1		
CC[C@@]1(C)C(=O)Nc2ccc(-c3ccc(C#N)n3C)cc21 (single isomer, unassigned)	3.2		
CC1(C)C(=O)Nc2ccc(-c3ccc(C#N)[nH]3)cc21 [5-(3,3-Dimethyl-2-oxo-2,3-dihydro-1H-indol-5-yl)-1H-pyrrole-2-carbonitrile]	27.2		
CN1C(=O)C(C)(C)c2cc(-c3ccc(C#N)[nH]3)ccc21 [5-(1,3,3-trimethyl-2-oxo-2,3-dihydro-1H-indol-5-yl)-1H-pyrrole-2-carbonitrile]	72.9		
Cn1c(C#N)ccc1-c1ccc2c(c1)C1(CCCC1)C(=O)N2 [1-methyl-5-(2′-oxo-1′,2′-dihydrospiro[cyclopentane-1,3′-indol]-5′-yl)-1H-pyrrole-2-carbonitrile]	30		
CCC1(CC)C(=O)Nc2ccc(-c3ccc(C#N)n3C)cc21 [5-(3,3-Diethyl-2-oxo-2,3-dihydro-1H-indol-5-yl)-1-methyl-1H-pyrrole-2-carbonitrile]	3.3		233 to 235
Cn1c(C#N)ccc1-c1ccc2c(c1)C1(CC1)C(=O)N2 [1-methyl-5-(2′-oxo-1′,2′-dihydrospiro[cyclopropane-1,3′-indol]-5′-yl)-1H-pyrrole-2-carbonitrile]	8.1		
Cn1c(C#N)ccc1-c1ccc2c(c1)CC(=O)N2 [1-methyl-5-(2-oxo-2,3-dihydro-1H-indol-5-yl)-1H-pyrrole-2-carbonitrile]	20.4		
CC[C@]1(C)C(=O)Nc2ccc(-c3ccc(C#N)n3C)cc21 (single isomer, unassigned)	7.4		
CCC1C(=O)Nc2ccc(-c3ccc(C#N)n3C)cc21 (racemic) [5-(3-ethyl-2-oxo-2,3-dihydro-1H-indol-5-yl)-1-methyl-1H-pyrrole-2-carbonitrile]	5.7		
